Assay results from patent US20100099640A1, “TISSUE DEGENERATION PROTECTION” (priority 2007, published 2010).

Legend:
[1] = test system: atherosclerotic plaques of DKO mice; experiment: Atherosclerosis: morphometric and immunohistochemical analysis of aortic root cross sections of DKO mice; type: in vivo, mouse; conditions: stevioside 10 mg/kg or steviol 5 mg/kg orally, 12 weeks
Experimental: (§1) Homozygous LDL-receptor-knockout mice (LDLR^(−/−)), heterozygous ob/+, and C57BL6 mice were purchased from Jackson Laboratory, Bar Harbor, Me. LDLR^(−/−) mice were backcrossed into a C57BL6 background to the 10th generation. To obtain DKO mice with combined leptin deficiency (ob/ob) and LDL-receptor deficiency, LDLR^(−/−) and ob/+ mice were crossed. All offspring were genotyped by polymerase chain reaction (PCR) techniques. All mice were housed at 22° C. on a fixed 12/12-hour light/dark cycle. Experimental procedures in animals were performed in accordance with protocols approved by the Institutional Animal Care and Research Advisory Committee. All mice were fed standard chow containing 4% fat (Pavan Service). Food intake was ≈5.7 g/d. Mice (about 50 g) were treated with stevioside (N=14; 10 mg/kg), steviol (N=9; 5 mg/kg) or placebo (N=17) for 12 weeks between 12 and 24 weeks of age. Stevioside (Molecular weight: 804) was dissolved in water (1 mg/ml) and 500 μl of the solution was administered orally. Steviol (Molecular weight: 318) was dissolved in water containing 6% NaHCO3 (1 mg/ml) and 250 μl of the solution was administered orally.
The extent of atherosclerosis was determined by analysis of cross sections from the aortic root. Approximately ten 7-μm frozen sections per staining per animal were used for morphometric and immunohistochemical analysis. Total plaque areas were measured on hematoxylin and eosin stained sections. Lipids were stained with oil-red O, and macrophage areas were stained with an antibody against mouse Mac-3 antigen (Pharmingen), and oxidized LDL with the monoclonal antibody 4E6. Blinded analysis of positive immunostained sections was performed with the Quantimet600 image analyzer (Leica).

[2] = test system: RNA expression in aortic arch; experiment: Real-time RT-PCR of RNA expression in aortic arch of treated DKO mice; type: in vivo, mouse
Experimental: as §1
The level of RNA expression in extracts of white visceral (intra-abdominal) adipose tissue and aortic arch was measured by real-time reverse transcription (RT)-PCR. Total RNA was extracted with the Trizol reagent (InVitrogen) and purified on an RNeasy kit column (Qiagen). First-strand cDNA was generated from total RNA by RT using random primers from Takara and Superscript III reverse transcriptase (InVitrogen). Quantitative real-time PCR was performed using SybrGreen master mix according to the supplier protocols (Applied Biosystems).). Oligonucleotides (InVitrogen) used as forward primer (F) and reverse primer (R) were: for mouse PPARalpha: F: 5′-[…]-3′; R: 5′-[…]-3′; for mouse PPARgamma: F: 5′-[…]-3′; R: 5′-GTCAGCGGGTGGGACTTTC-3′; for mouse FABP4: F: 5′-AACTGGGCGTGGAATTCG-3′; R: 5′-[…]-3′; for mouse iNOS: F: 5′-[…]-3′; R: 5′-[…]-3′; for mouse GLUT-4: F: 5′-[…]-3′; R: 5′-[…]-3′; for mouse IRS-1: F: 5′-[…]-3′; R: 5′-CGCCTCGGGAAGAGACAGT-3′; for mouse IRS-2: F: 5′-[…]-3′: R: 5′-[…]-3′; for mouse LXRalpha: F: 5′-[…]-3′; R: 5′-[…]-3′; for mouse SOD1: F: 5′-[…]-3′; R: 5′-[…]-3′; for mouse SOD2: F: 5′-TCGGTGGCGTTGAGATTGT; R: 5′-[…]-3′; for mouse SOD3: F: 5′-[…]-3′; R: 5′-GCTGCCGGAAGAGAACCAA-3′; and for mouse β-actin (housekeeping gene), F: 5′-[…]-3′; R: 5′-[…]-3′. The level of mRNA expression was calculated using the threshold cycle (Ct) value, i.e., the number of PCR cycles at which the fluorescent signal during the PCR reaches a fixed threshold. For each sample, the Ct both for the gene of interest and for the housekeeping gene β-actin were determined to calculate ΔCt,sample (Ct,target gene−Ct,housekeeping gene), thus normalizing the data and correcting for differences in amount and/or quality between the different RNA samples. The expression levels were related to an external calibrator consisting of intra-abdominal adipose tissue from C57BL6 control mice. Subsequently, ΔΔCt (ΔCt,sample−ΔCt,calibrator) was determined, and the relative expression levels were calculated from 2^−ΔΔCt according to the manufacturer's instructions (Applied Biosystems). RNA expression levels are thus indicated as arbitrary units ±SD

[3] = test system: everted gastrointestinal sacs of rats and Caco-2 cell layers; conditions: everted gastrointestinal sacs of rats, Caco-2 cell layers; cited from earlier work
[4] = aortic arch, stevioside 10 mg/kg orally, 12 weeks

In the case of C=C1C[C@@]23CC[C@H]4C(C)(CCC[C@@]4(C)C(=O)O[C@@H]4O[C@H](CO)C(O)[C@H](O)C4O)[C@@H]2CCC1(OC1O[C@H](CO)C(O)C(O)C1OC1O[C@H](CO)C(O)[C@H](O)C1O)C3 (stereo in doubt) [stevioside, Kaur-16-en-18-oic acid, 13-[(2-O-b-D-glucopyranosyl-b-D-glucopyranosyl)oxy]-, b-D-glucopyranosyl ester, (4a)-], the “lipid deposition in plaques” value [1] is reported as “reducing”, the “macrophage deposition in plaques” value [1] is reported as “reducing” and the “oxLDL deposition in plaques” value [1] is reported as “reducing”. The plaque volume [1] was “lowered”, the “smooth muscle cell (SMC)-to-macrophage ratio (proxy for plaque stability)” value [1] was “increased” and the eNOS ([2]; aorta of stevioside-treated mice) was “not affected”. For the same compound, the “expression of IRS2” value [2, 4] was “increased expression”, the “expression of PPARalpha” value [2, 4] was “did not increase” and the “expression of SOD1” value [2, 4] was “increased expression”. For the same compound, the “expression of SOD2” value [2, 4] was “increased expression”, the “expression of the inflammatory iNOS” value [2, 4] was “decreased the expression” and the “uptake by the intestinal tract” value [3] was “extremely low”.
